The values below come from US7763604B2, “Methods for administration of a farnesyl dibenzodiazepinone” (Thallion Pharma Ceuticals, Inc., priority 2005, dated 2010).

For data set [1], the system named is human glioma (U-87MG) tumor xenograft. The data set can be described thus: human U-87MG glioblastoma xenograft antitumor efficacy. The class given is in vivo, female athymic (nu/nu) nude mice. To be noted: SC 30 mg/kg q1d×5 over 2 weeks. The source says: In this model and the models of Examples 3, 6 and 7, tumor growth was followed every other day by measuring tumor length (L) and width (W) using a calliper. Measurements were converted to tumor volumes (TV; mm^3) using the standard formula, TV=(L×W^2)/2. Tumor volume at day n was expressed as relative tumor volume (RTV) according to the following formula RTV=TVn/TV0, where TVn is the tumor volume at day n and TV0 is the tumor volume at day 0. The percentage of tumor growth inhibition (% TGI) was determined by 1−(mean RTV of treated group/mean RTV of control group)×100. […] Statistical analysis was calculated by the two-tailed unpaired t test using the Prism software. Animals were weighed at least twice weekly during and after treatment until completion of the study. The mice were examined frequently for overt signs of any adverse drug-related side effects.
The human U-87 MG (ATCC® no. HTB-14™) glioblastoma antitumor efficacy study was performed at INSERM U318 (Grenoble, France). The U-87MG cell line is derived from a brain glioblastoma of a person. […]
For the human glioblastoma antitumor efficacy study, female athymic (nu/nu) nude mice (6-7 weeks of age) were inoculated SC with 5×10^6 U-87MG cells (day 0). […] Tumor growth inhibition (TGI) was calculated on day 34 post tumor cell inoculation, at which time some animals from the vehicle control group had to be sacrificed due to tumor burden.
For orientation: A xenograft is tissue or cells of one species grown in another, often human tumour cells in immunodeficient mice.

Data set [2] can be described thus: human pharmacokinetic parameters extrapolated from allometric equations. To be noted: estimated from allometric equations. As to the method:
An analysis was performed to derive allometric equations for Formula I pharmacokinetic parameters using Formula I plasma concentration-time data from three species, including mouse, rat, and monkey, and to estimate human pharmacokinetic parameters from those allometric equations.
Plasma concentrations of Formula I were obtained from mice, rats, and monkeys following intravenous injection or continuous infusion. Formula I pharmacokinetic parameters in mice, rats, and monkeys were estimated using population pharmacokinetic analysis, a function of the software program NONMEM™ (version 5). Typical population pharmacokinetic parameters for Formula I in humans were extrapolated from allometric equations that were derived from pharmacokinetic parameters estimated in the three animal species.
Allometric equations for the pharmacokinetic parameters clearance (CL), volume of distribution (V1 and V2), and inter-compartmental clearance (Q) were derived. The population PK parameters of the compound of Formula I for humans were extrapolated from the allometric equations, and the estimated values are shown in Table 6. Simulated Formula I plasma concentration-time profiles in humans are shown in FIG. 13 and estimated end of infusion concentrations are provided in Table 7.

Take `CC(C)=CCC/C(C)=C/CC/C(C)=C/CN1C(=O)c2cccc(O)c2Nc2c(O)cc(O)cc21` [Formula I, 10-farnesyl-4,6,8-trihydroxy-dibenzodiazepin-11-one]: the body weight loss result in data set [1] is on record as “no significant body weight loss”. Also, in data set [2], the Ke is 1.192 h⁻¹, the Q is 0.533 mL/min/kg, the “t1/2,α” value is 0.509 h and the “t1/2,β” value was 13.8 h.
